The text below walks through data of paper PMC2713365 (International journal for parasitology, 2009).

In experiment [1] the target is T1, AsGAR-1 (Ascaris suum, UniProt C0KJK1). Kind of experiment: cell-based. To be noted: read-out: yeast functional expression, growth reporter, agonist at 10^-4 M.
For experiment [2], the target named is T1, AsGAR-1. Nature of the experiment: yeast functional expression, antagonism of […] ACh by […] compound. To be noted: read-out: % of control growth at 10^-4 M. It is filed as cell-based.
Experiment [3] addresses T1, AsGAR-1. The description is as above. It is filed as cell-based. To be noted: read-out: % inhibition at 10^-4 M.

Take `COC(=O)C1=CCCN(C)C1` [Arec, arecoline]: the fold induction at 100 µM at AsGAR-1 [1] came to 10.2 ± 1.6.
`CC(C)NCC(O)COc1cccc2ccccc12` (centres unmarked) [Prop, propranolol]: the remaining activity at 100 µM on AsGAR-1 [2] is 41.2 ± 8.9%.
Consider `C[N+](C)(C)CCOC(N)=O` [Carb, carbachol], for which the fold induction at 100 µM on AsGAR-1 [1] was found to be 10.8 ± 1.7.
On the same count and under the same terms, next, `CC(C[N+](C)(C)C)OC(N)=O` (centres unmarked) [Beth, bethanechol]: 7.7 ± 0.8.
On to `CN1[C@@H]2CC[C@H]1C[C@@H](OC(=O)C(CO)c1ccccc1)C2` (some centres unmarked) [Atr, atropine], for which the inhibition (in general, the change of the read-out against control, counted positive when it falls) at 100 µM on AsGAR-1 [3] was 62.2%.
`CN1CCN2c3ccccc3Cc3ccccc3C2C1` (centres unmarked) [Mian, mianserin]: on AsGAR-1 [2], the remaining activity at 100 µM worked out at 24 ± 0.1%.
Turning to `C[N+](C)(C)CC#CCN1CCCC1=O` [Oxo, oxotremorine M], the fold induction at 100 µM on AsGAR-1 [1] is 8.2 ± 1.7.
As for `O=C(CCCN1CCC2(CC1)C(=O)NCN2c1ccccc1)c1ccc(F)cc1` [Spip, spiperone], on AsGAR-1 [2], the remaining activity at 100 µM came to 52.8 ± 7.6%.
